Four molecules from US20160237400A1, “ISOLATION OF NON-EMBRYONIC STEM CELLS AND USES THEREOF” (The Jackson Laboratory, priority 2013, published 2016) can be followed below.

“Also recorded” adds a separate entry of the source.

The subject of assay [1] is paclitaxel resistant (G3) IC#1 CSC library. Nature of the assay: plate (colony formation) assay, paclitaxel-resistant CSC library. Type of assay: cell-based, human. On the procedure:
(§1) Survivors were re-plated en masse, and cycled through two additional rounds of 100 nM paclitaxel for 3 hours with recovery in between for 10 days, after which visible colonies were selected and individually expanded as pedigrees (FIG. 28B). To determine relationships between these ad hoc, paclitaxel-resistant pedigrees from the library and the 92 randomly sampled pedigrees from the treatment-naïve IC#1 library assessed for CSC heterogeneity, their CNV profiles were mapped onto the heterogeneity map established for IC#1.
The GSEA data in the table above highlighted the PGR pathway. Analysis of gene expression in the IC#1 CSC library treated with successive rounds of paclitaxel indeed confirmed a progressive increase in PGR expression (FIG. 31). […] The fate of 25,000 colony forming units from the IC#1 CSC library and the paclitaxel resistant library (G3) following exposure to combinations of paclitaxel, RU486, and cisplatin were directly compared. RU486 is a PGR antagonist that has previously been tested and failed as a single agent in clinical trials for recurrent ovarian cancer.
Next, the long-term impact of these drug combinations on the paclitaxel-resistant G3 pool over successive rounds of exposure was investigated.
(§2) High-grade ovarian cancer was surgically resected, and tumor tissue was collected into cold F12 media (Gibco, USA) with 5% fetal bovine serum (HyClone, USA) and then minced by sterile scalpel into 0.2-0.5 mm^3 sizes to a viscous and homogeneous appearance. The minced tissue was digested in 2 mg/mL collagenase type IV (Gibco, USA) at 37° C. for 30-60 min with agitation. Dissociated cells were passed through a 70 μm Nylon mesh (Falcon, USA) to remove aggregates and then were washed four times in cold F12 media, and then seeded onto a feeder layer of lethally irradiated 3T3-J2 cells in c-FAD media modified to SCM-68 media by the addition of 125 ng/mL R-spondin1 (R&D systems, USA), 1 μM Jagged-1 (AnaSpec Inc., USA), 100 ng/ml human Noggin (Peprotech, USA), 2.5 μM Rock-inhibitor (Calbiochem, USA), 2 μM SB431542 (Cayman chemical, USA), and 10 mM nicotinamide (Sigma-Aldrich, USA).
Cells were cultured at 37° C. in a 7.5% CO2 incubator. The culture media was replaced every two days. Colonies were digested by 0.25% trypsin-EDTA solution (Gibco, USA) for 5-8 min and passaged every 7 to 10 days. Colonies were trypsinized by TrypLE Express solution (Gibco, USA) for 8-15 min at 37° C. and cell suspensions were passed through 30 μm filters (Miltenyi Biotec, Germany). Approximately 20,000 epithelial cells were seeded to each well of 6-well plate. Cloning cylinder (Pyrex, USA) and high vacuum grease (Dow Corning, USA) were used to select single colonies for pedigrees. Gene expression analyses were performed on cells derived from passage 2-8 (P2-P8) cultures.

Assay [2] concerns stem cell colonies (DASCp63/Krt5) from Krt6-DTR and WT mouse lung. Type of assay: cell-based.
Assay [3] deals with Krt5+ / Krt6+ cells in lung of Krt6-DTR mice. Conditions: in vivo.
For assay [4], the system named is CSCs from the IC#2 library. Put plainly: paclitaxel challenge of IC#2 CSCs. Conditions: parameters identical to IC#1 (100 nM, 3 hours, three rounds); 37 individual CSCs. The format is cell-based, human.
Assay [5] concerns N11 CSC pedigree (IC#1 library). Put plainly: paclitaxel challenge of sampled CSC pedigree N11. The format is cell-based, human.
In assay [6] the test system is CSCs from the IC#1 library (G0), high-grade ovarian cancer. Nature of the assay: plate (colony formation) assay, rhodamine B stain, treatment-naive CSC library. Type of assay: cell-based, human. On the procedure:
To probe for paclitaxel resistance in the IC#1 library of CSCs, a paclitaxel dose-response curved were established by challenging 10,000 CSCs with a spectrum of paclitaxel concentrations. […] The plates were then stained with rhodamine B. Rhodamine B-stained 100 nM paclitaxel treatment plate yielded less than 0.1% of the control colonies.
as §1, §2
Cells were cultured at 37° C. in a 7.5% CO2 incubator. The culture media was replaced every two days. Colonies were digested by 0.25% trypsin-EDTA solution (Gibco, USA) for 5-8 min and passaged every 7 to 10 days. […]

For assay [7], the system named is CSC pedigrees sampled from Groups B, C, D, E, F and G of the IC#1 library. Nature of the assay: paclitaxel challenge of sampled CSC pedigrees of Groups B to G. Type of assay: cell-based, human.
Assay [8] deals with CD166hi CSC clones from the IC#1 library. Nature of the assay: drug challenge of CD166hi sorted CSC clones. The format is cell-based, human. Conditions: clones flow sorted for CD166 from the IC#1 library, individually tested.

Take `CC(C)C[C@H](NC(=O)[C@H](Cc1ccccc1)NC(=O)c1cnccn1)B(O)O` [bortezomib]: the “effect towards resistant CSCs of IC#1 when used together with paclitaxel” value in assay [1] is on record as “synthetic lethality”.

For the molecule `CC(C)C[C@H](NC(=O)[C@H](CCc1ccccc1)NC(=O)CN1CCOCC1)C(=O)N[C@@H](Cc1ccccc1)C(=O)N[C@@H](CC(C)C)C(=O)[C@@]1(C)CO1` [carfilzomib], in assay [1], the “effect towards resistant CSCs of IC#1 when used together with paclitaxel” value was “synthetic lethality”.

diphtheria toxin: in assay [2], the “fate of Krt6-DTR stem cell colonies on diphtheria toxin” value is given as “die within four days; also recorded: dies after 4 days”; the “fate of control (WT) colonies on diphtheria toxin” value is “continued to proliferate and expand in size; also recorded: looks normal”; the “sensitivity of Krt6 negative endothelial cells from Krt6-DTR mice” value is reported as “insensitive”. In assay [3], the “reduction of clonogenic cell number versus WT mouse with DT (clonogenic assay)” value is 70-80%. Also, in assay [3] (mouse), the “loss of Krt5+ cells compared to wild type controls” value is given as 90% and the “loss of Krt6+ cells compared to wild type controls” value was “greater than 99%”. In assay [3] (mouse, ip), the “reduction of Krt5+ cell number versus WT (IF staining)” value was 70% and the “reduction of Krt6+ cell number versus WT (IF staining)” value is on record as about 90%.

For `CC(=O)O[C@H]1C(=O)[C@@]2(C)[C@H]([C@H](OC(=O)c3ccccc3)[C@]3(O)C[C@H](OC(=O)[C@H](O)[C@@H](NC(=O)c4ccccc4)c4ccccc4)C(C)=C1C3(C)C)[C@]1(OC(C)=O)CO[C@@H]1C[C@@H]2O` [paclitaxel], the “survival of triple paclitaxel challenge” value in assay [4] is on record as “none of the 37 individual CSCs from the IC#2 library survived”. The “survival (colonies) of the paclitaxel-resistant G3 pool” value in assay [1] (25,000 colony-forming units, G4 challenge) was 15%. Besides, in assay [1] (Ru486 10 μM, paclitaxel 100 nM, cisplatin 20 μM), the “resistance over four additional successive rounds of exposure, measured by colony formation” value is “progressive resistance”. In addition, the “cells survived initial challenge” value in assay [5] (initial challenge, single dose of 100 nM paclitaxel) is recorded as 17.5%. In addition, the “resistance after two additional challenges” value in assay [5] (third round of paclitaxel) is about 100%. In addition, the “colonies relative to control colonies” value in assay [6] (100 nM paclitaxel for 3 hours, about 10,000 colony-forming units, rhodamine B stain) is listed as “less than 0.1%”. Moreover, the “activity against the treatment naive IC#1 G0 library” value in assay [6] (25,000 colony-forming units, single agent) is given as “strong activity”. The “resistance to initial challenge” value in assay [6] (single dose of 100 nM paclitaxel, IC#1 library) was “little or no resistance”; in assay [7] (single dose of 100 nM paclitaxel, representative CSCs from the other six clusters), “little or no resistance”. Also, the “resistance at the third round” value in assay [7] (CSCs within group B, third round of paclitaxel) was “less than 35%”. Also, the “CD166hi clones tested with intrinsic resistance” value in assay [8] was found to be 21%.
